In patent US20260151517A1, “SOMATOSTATIN RECEPTOR-TARGETING RADIOPHARMACEUTICALS AND USES THEREOF” (Nuclidium AG, priority 2024, published 2026):
Read-outs that look alike come from different tables or passages of the source. *1 amine or outer side, *2 acyl side, *3 side chain or, on linkers, in order; H or OH if unused. Where a SMILES comes first, the peptide text is derived from it. Bridges are numbered along the chain shown (N, C = ends). [ ]: non-standard residue; d: D form. The star is where a group is joined. NODAGA = O=C(O)CN1CCN(CC(=O)O)CCN(C(CCC(=O)*)C(=O)O)CC1; X1 = NC(=O)Nc1ccc(CC(N[*:1])C(=O)[*:2])cc1; Phe(4-Cl) = N[CH](Cc1ccc(Cl)cc1)C(=O)O

Experiments:
in vivo = details: athymic nude Foxn1^nu, mouse, total radioactivity
Description: (§2) Unless otherwise specified, the in vivo studies were performed on athymic nude Foxn1^nu 4-6 weeks-old mice. Animals were injected in the shoulder with HEK-SST2 cells (10^7 cells/200 μL) suspended in PBS. The in vivo experiments were performed when tumors reached a volume between 100-500 mm. At the intervention, all mice were between 7 and 11 weeks old.
(§3) The specificity study was performed parallel to pharmacokinetics studies. For this reason, NODAGA-LM3 was radiolabeled with ^64Cu.
(§4) The specificity of [^64Cu]Cu-NODAGA-LM3 for SSTR2-expressing tissues was evaluated in HEK-SST2 xenograft mice through a blocking study. The mice were administered with 0.15 MBq of [^64Cu]Cu-NODAGA-LM3 co-injected with a 2000-fold excess of DOTA-LM3 as a blocking agent. The mice were sacrificed 4 hours post-injection, and the organs were collected. weighed, and counted in a gamma counter.

[1] = tested on: well-differentiated BP and GEP neuroendocrine tumors (NET); test: Human clinical trial, PET/CT imaging vs [^68Ga]Ga-DOTATOC PET/CT; type: in vivo; details: Subjects 1-4 and 6
Description: The study will be a prospective, open-label, controlled, reader-blind, single center, phase I/II PET/CT study.
The study product will be a single intravenous administration of GMP produced [^61Cu]Cu-NODAGA-LM3 followed by up to three PET/CT acquisitions. [^61Cu]Cu-NODAGA-LM3 will be administered once intravenously at an amount of 20-40 μg (or 13-26 nmol) and an activity range of 150 MBq (±25%).
The control intervention will be [^68Ga]Ga-DOTA-TOC PET/CT (150 MBq (±25%)) (including CE-CT), is acquired as standard of care and not part of the study, but scan results will be used as comparator for the diagnostic efficacy analysis (Phase II).
The diagnostic efficacy analysis (sensitivity, tumor uptake and image contrast (TBR), will be done in comparison with [^68Ga]Ga-DOTA-TOC PET/CT acquired as standard of care in a randomized, cross-over order. Readers of the scans will be blinded for imaging time point, tracers and clinical data and will follow a locked-read methodology. Number of Participants and Rationale: n=27 patients (including 22 patients for the sensitivity analysis powered for both superiority and non-inferiority design and 5 patients with negative [^68Ga]Ga-DOTATOC PET/CT and a positive NETest) […]

Biodistribution studies = type: in vivo, mice; details: athymic nude Foxn1^nu, mouse, iv, 1 MBq, total radioactivity
Description: (§1) The dose of the administered radiopharmaceutical was 1 MBq ([…]) diluted to 100 μL with saline solution. The mice were euthanized at 4 hours post-injection, and the organs of interest were collected, rinsed, blotted, weighed, and analyzed in a gamma counter. The results were expressed as the percentage of injected activity per gram of tissue (% IA/g) and reported as mean±standard deviation in Table 32.

[2] = tested on: HEK-SST2 xenografted mice; test: Biodistribution studies; type: in vivo; details: 4 hours post-injection, 1 MBq i.v.
Description: as §1

HEK-SST2 xenograft mice = details: athymic nude Foxn1^nu, mouse, in vivo, 4 h
Description: as §2, §3, §4

[3] = type: physicochemical; details: pH 7.4
Description: The mixture was vortexed for 30 min and then centrifuged at 3000 rpm to achieve phase separation. Aliquots from each phase were collected and measured in a gamma counter. The distribution coefficient was calculated as the average logarithmic values of the ratio between the radioactivity in the organic and the PBS phase.

Question: What does the source list for CC(O)C1NC(=O)C(CCCCN)NC(=O)C(Cc2ccc(NC(N)=O)cc2)NC(=O)C(Cc2ccc(O)cc2)NC(=O)C(NC(=O)C(Cc2ccc(Cl)cc2)NC(=O)CCC(C(=O)O)N2CCN(CC(=O)O)CCN(CC(=O)O)CC2)CSSCC(C(=O)NC(Cc2ccc(O)cc2)C(N)=O)NC1=O (centres unmarked) [[^61Cu]Cu-NODAGA-LM3, metal not drawn] ({NODAGA}-[Phe(4-Cl)]CY[X1]KTCY-NH2; disulfide 2-7; configuration not given here)?
Answer: tissue uptake at 4 h (in vivo; 0.15 MBq, Uptake Bone): 0.39 ± 0.07 %ID/g; tissue uptake at 4 h (in vivo; 0.15 MBq, Uptake Pancreas): 0.55 ± 0.1 %ID/g; tissue uptake at 4 h (in vivo; 0.15 MBq, Uptake Stomach): 1.31 ± 0.55 %ID/g; tissue uptake at 4 h (in vivo; 0.15 MBq, Uptake Tumor): 37.9 ± 3.43 %ID/g; tissue uptake at 4 h (in vivo; Uptake Blood): 0.11 ± 0.05 %ID/g; tissue uptake at 4 h (in vivo; Uptake Bone): 0.01 ± 0.01 %ID/g; tissue uptake at 4 h (in vivo; Uptake Heart): 0.14 ± 0.07 %ID/g; tissue uptake at 4 h (in vivo; Uptake Intestine): 0.46 ± 0.01 %ID/g; tissue uptake at 4 h (in vivo; Uptake Kidney): 3.52 ± 0.93 %ID/g; tissue uptake at 4 h (in vivo; Uptake Liver): 0.96 ± 0.14 %ID/g; tissue uptake at 4 h (in vivo; Uptake Lung): 0.67 ± 0.25 %ID/g; tissue uptake at 4 h (in vivo; Uptake Muscle): 0.03 ± 0.01 %ID/g; tissue uptake at 4 h (in vivo; Uptake Pancreas): 0.12 ± 0.03 %ID/g; tissue uptake at 4 h (in vivo; Uptake Spleen): 0.21 ± 0.06 %ID/g; tissue uptake at 4 h (in vivo; Uptake Stomach): 0.43 ± 0.14 %ID/g; tissue uptake at 4 h (in vivo; Uptake Tumor): 0.52 ± 0.18 %ID/g; tissue uptake at 4 h (in vivo; female, iv, 0.15 MBq, Uptake Intestine): 0.46 ± 0.04 %ID/g; tissue uptake at 4 h (in vivo; female, iv, 0.15 MBq, Uptake Kidney): 4.41 ± 0.74 %ID/g; tissue uptake at 4 h (in vivo; female, iv, 0.15 MBq, Uptake Lung): 0.6 ± 0.17 %ID/g; tissue uptake at 4 h (in vivo; female, iv, 0.15 MBq, Uptake Spleen): 0.21 ± 0.1 %ID/g; physiological uptake in the liver, spleen, and GI tract [1]: very low physiological uptake; tissue to tissue ratio at 4 h (Biodistribution studies; in vivo, Tumor-to-organ uptake ratio Tumor/Blood): 181; tissue to tissue ratio at 4 h (Biodistribution studies; in vivo, Tumor-to-organ uptake ratio Tumor/Liver): 26; tissue to tissue ratio at 4 h (Biodistribution studies; in vivo, Tumor-to-organ uptake ratio Tumor/Muscles): 185; tissue to tissue ratio at 4 h (Biodistribution studies; in vivo, Tumor-to-organ uptake ratio Tumor/Pituitary): 5.3; tissue uptake at 4 h (Biodistribution studies; in vivo, Uptake [% IA/g] Adrenal): 0.61 ± 0.18 %ID/g; tissue uptake at 4 h (Biodistribution studies; in vivo, Uptake [% IA/g] Blood): 0.11 ± 0.01 %ID/g; tissue uptake at 4 h (Biodistribution studies; in vivo, Uptake [% IA/g] Bone): 0.42 ± 0.12 %ID/g; tissue uptake at 4 h (Biodistribution studies; in vivo, Uptake [% IA/g] HEK-STT2-tumor): 19 ± 2.1 %ID/g; tissue uptake at 4 h (Biodistribution studies; in vivo, Uptake [% IA/g] Heart): 0.17 ± 0.02 %ID/g; tissue uptake at 4 h (Biodistribution studies; in vivo, Uptake [% IA/g] Intestine): 0.58 ± 0.12 %ID/g; tissue uptake at 4 h (Biodistribution studies; in vivo, Uptake [% IA/g] Liver): 0.73 ± 0.06 %ID/g; tissue uptake at 4 h (Biodistribution studies; in vivo, Uptake [% IA/g] Lung): 0.42 ± 0.05 %ID/g; tissue uptake at 4 h (Biodistribution studies; in vivo, Uptake [% IA/g] Muscle): 0.1 ± 0.02 %ID/g; tissue uptake at 4 h (Biodistribution studies; in vivo, Uptake [% IA/g] Pancreas): 0.44 ± 0.24 %ID/g; tissue uptake at 4 h (Biodistribution studies; in vivo, Uptake [% IA/g] Pituitary): 3.64 ± 0.31 %ID/g; tissue uptake at 4 h (Biodistribution studies; in vivo, Uptake [% IA/g] Spleen): 0.18 ± 0.02 %ID/g; tissue uptake at 4 h (Biodistribution studies; in vivo, Uptake [% IA/g] Stomach): 0.79 ± 0.13 %ID/g; tissue uptake at 4 h (Biodistribution studies; kidneys, 4 hours post-injection, 1 MBq i.v., read-out: Uptake [% IA/g] Kidneys): 3.87 ± 0.51 %ID/g; tissue to tissue ratio at 4 h (Biodistribution studies; tumor / all organs except kidneys, 4 hours post-injection, read-out: tumor-to-organ uptake ratio, all the organs except for kidneys): > 5; tissue to tissue ratio at 4 h (Biodistribution studies; tumor/kidney, 4 hours post-injection, read-out: Tumor-to-organ uptake ratio Tumor/Kidney): 4.9; Uptake [% IA/g] Kidneys [2]: 3.87±0.51 % IA/g; Uptake Blood (HEK-SST2 xenograft mice): 0.10 ± 0.02 % IA/g; Uptake Heart (HEK-SST2 xenograft mice): 0.20 ± 0.01 % IA/g; Uptake Liver (HEK-SST2 xenograft mice): 0.90 ± 0.20 % IA/g; Uptake Muscle (HEK-SST2 xenograft mice): 0.02 ± 0.01 % IA/g; logD [3]: -2.95 ± 0.08
